Test results reported in patent US8273700B2, “Methods and compositions for treatment of cystic fibrosis” (The Johns Hopkins University, priority 2005, dated 2012).
“Also recorded” adds a separate entry of the source. Where a SMILES comes first, the peptide text is derived from it. [ ]: non-standard residue; d: D form. Nle = CCCC[C@H](N)C(=O)O

Columns and labels:
CFTR = target: T1, CFTR (Homo sapiens, UniProt P13569, DEL508-508); assay: MQAE assay of CFTR-mediated chloride transport in IB3-1 cells; type: cell-based; settings: for MQAE fluorescence (Cl- channel activity): 10 μM forskolin or genistein, 5 μM CFTR inhibitor 172 or 14-22 amide (FIG. 5A)
T1 construct: expressed in transfected cells; host or cells: IB3-1 (ΔF508/W1282X) and CFTE (ΔF508 homozygous) cells
T1 sequence (P13569 with tags, fused parts or gaps DEL508-508): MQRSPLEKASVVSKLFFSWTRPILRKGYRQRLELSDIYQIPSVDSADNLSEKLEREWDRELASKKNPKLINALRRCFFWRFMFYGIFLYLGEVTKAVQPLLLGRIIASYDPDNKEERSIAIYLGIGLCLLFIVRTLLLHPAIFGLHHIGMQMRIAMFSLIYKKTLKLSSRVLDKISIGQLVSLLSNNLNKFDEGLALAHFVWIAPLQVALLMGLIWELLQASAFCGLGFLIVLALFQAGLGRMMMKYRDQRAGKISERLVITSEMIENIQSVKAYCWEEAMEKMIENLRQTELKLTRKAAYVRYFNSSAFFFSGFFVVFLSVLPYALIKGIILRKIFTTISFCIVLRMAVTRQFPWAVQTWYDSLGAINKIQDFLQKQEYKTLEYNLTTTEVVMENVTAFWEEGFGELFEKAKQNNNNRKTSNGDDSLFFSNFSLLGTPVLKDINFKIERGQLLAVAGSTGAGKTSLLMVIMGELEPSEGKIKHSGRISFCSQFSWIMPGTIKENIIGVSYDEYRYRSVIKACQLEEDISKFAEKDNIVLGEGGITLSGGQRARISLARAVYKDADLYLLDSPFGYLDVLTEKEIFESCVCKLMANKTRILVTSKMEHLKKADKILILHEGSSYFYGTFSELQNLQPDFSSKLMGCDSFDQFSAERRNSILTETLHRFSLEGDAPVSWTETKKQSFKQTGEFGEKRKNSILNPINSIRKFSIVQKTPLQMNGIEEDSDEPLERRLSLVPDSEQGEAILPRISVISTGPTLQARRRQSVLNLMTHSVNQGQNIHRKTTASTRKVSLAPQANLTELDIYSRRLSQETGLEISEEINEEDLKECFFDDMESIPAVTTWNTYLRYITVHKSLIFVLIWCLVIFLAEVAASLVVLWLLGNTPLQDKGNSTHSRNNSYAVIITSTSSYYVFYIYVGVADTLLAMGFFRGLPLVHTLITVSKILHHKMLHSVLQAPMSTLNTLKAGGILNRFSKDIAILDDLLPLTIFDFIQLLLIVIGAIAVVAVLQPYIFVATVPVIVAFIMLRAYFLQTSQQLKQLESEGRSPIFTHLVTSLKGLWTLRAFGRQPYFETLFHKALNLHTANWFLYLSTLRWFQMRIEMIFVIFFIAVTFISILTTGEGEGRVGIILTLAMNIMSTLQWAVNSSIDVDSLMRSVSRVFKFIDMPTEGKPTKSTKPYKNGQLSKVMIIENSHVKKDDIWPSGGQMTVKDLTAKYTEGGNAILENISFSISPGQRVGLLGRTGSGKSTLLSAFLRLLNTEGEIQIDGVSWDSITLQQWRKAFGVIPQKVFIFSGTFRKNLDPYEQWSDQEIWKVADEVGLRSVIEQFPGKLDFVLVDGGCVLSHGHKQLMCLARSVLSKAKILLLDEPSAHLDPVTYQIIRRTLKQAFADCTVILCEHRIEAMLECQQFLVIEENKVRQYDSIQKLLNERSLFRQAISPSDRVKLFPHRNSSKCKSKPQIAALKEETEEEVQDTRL
Method: CFTR-mediated chloride transport activity in IB3-1 cells transfected with ΔVCP, VCPQQ, Δgp78 and gp78ΔC constructs, and treated with bortezomib (1, 5 or 10 μM) was assayed by the halide-sensitive dye, MQAE. Fluorescence of MQAE is quenched by halides. Cells were grown on glass coverslips in DMEM containing 10% FBS. Cells were loaded with the dye by hypotonic shock at 37° C. for 40 min in Opti-MEM/water (1:1) containing 10 mM MQAE, washed and then mounted in a perfusion chamber for fluorescence measurements. Fluorescence was measured using a Zeiss inverted microscope coupled to a CCD camera Excitation and emission wavelengths were 350 nm and 460 nm, respectively. The stage and objective lenses were maintained at 37° C. The media was kept flowing through the perfusion chamber at 1 ml/min using a peristaltic pump. Both 10 μM forskolin and 10 μM genistein were used to induce Cl^− transport in IB3-1 cells. CFTR was inhibited with either 5 μM CFTR inhibitor 172 (12) or 14-22 amide (Calbiochem, San Diego, Calif.) to reduced cAMP mediated phosphorylation. Chloride efflux was calculated using following equations: F0/FCl=1+[Cl-]i*Ksv (1) F0=F20*(1+0.02*Ksv) (2) (dCl/dt)=F0/[Ksv*(FCl)2]*dFCl/dt (3)

ΔF508-CFTR [1] = test system: ΔF508-CFTR; set-up: dose or concentration left out as unconfirmed; settings: cited from earlier work
IL8 = IL8 cytokine ELISA in IL1-β induced IB3-1 cells; type: cell-based, human; settings: for IL8 cytokine levels: IL1-β 1 ng/ml 12 hrs
NFκB = assay: NoShift NFκB binding assay on nuclear extracts of IB3-1 cells; type: cell-based, human; settings: for NFκB binding (absorbance at 450 nm): IL1-β 1 ng/ml 12 hrs, transfection 24 hrs or 5 μM bortezomib / 5 μM MLN-273 6 hrs (FIG. 6C)
Method: IB3-1 cells transfected (24 hrs) with ΔVCP, ΔF508 or ΔCHOP were treated with 5 μM bortezomib (6 hrs)/5 μM MLN-273 (6 hrs)/5 mM 4PBA (24 hrs). Cells were induced with IL-β(1 ng/ml) for 12 hrs. After 24 hrs of transfection, nuclear extracts (11) were collected using NucBuster protein extraction kit (Novagen, San Diego, Calif.) and the shift in bound NFκB was measured using NoShift NFκB Binding Assay kit (Novagen, San Diego, Calif.) as specified by the manufacturer. The signal from nuclear extracts was compared with the negative control (minus extract). The specificity of protein binding was established using NFκB specific and mutant competitors. The plates were read at 450 nm on 96-well microplate reader (Molecular Devices) using SOFT-MAX-Pro software. The absorbance readings were used to determine the levels of bound NFκB. The data represents mean of three independent experiments±SD.

ΔF508-CFTR [2] = assay: Pulse-chase metabolic labeling and CFTR immunoprecipitation in IB3-1 cells; type: cell-based, human; settings: metabolic labeling t=2 hrs, transfection 48 hrs or 10 μM bortezomib 6 hrs (FIG. 2D)
Method: (§1) The IB3-1 (ΔF508/W1282X; low level expression of ΔF508-CFTR and no W1282X protein), CFTE (ΔF508-homozygous) and S9 (IB3-1 corrected by AAV-CFTR) cells were maintained in LHC-8 media containing 100 units/ml penicillin, 100 μg/ml streptomycin, 0.25 μg/ml amphotericin B and 10% fetal bovine serum. LHC-8 media was purchased from Biosource and other components were purchased from Gibco (Invitrogen, Carlsbad, Calif.). The cells were plated on 6-well plates and transfected with 4 μg plasmid DNA each of ΔF508/wt-CFTR-GFP and co-transfected with VCP shRNA (ΔVCP), VCPQQ construct (deficient in two AAA ATPase domains, D1 & D2), gp78 siRNA (Δgp78) or gp78ΔC (deficient in VCP binding domain) constructs using Lipofectamine 2000 (Invitrogen, Carlsbad, Calif.) as described by the manufacturer. After 48 hrs of transfection, cells were rinsed three times and starved for 1 hr in methionine- and cysteine-free Dulbecco's modified Eagle's medium (DMEM). Cells were pulse labeled with 250 μci/ml [^35S]-methionine and cysteine (ICN Biomedical, Irvine, Calif.) for 30 min and than chased in DMEM containing 10 mM methionine and 4 mM cysteine for indicated times.
(§2) Cells were lysed directly on plates using M-PER (Pierce Biotech. Inc., Rockford, Ill.) protein lysis buffer containing protease inhibitor cocktail (Roche) after three washes with ice cold PBS. […] Proteins were detected using respective primary antibodies. […]

wt-CFTR = assay: Pulse-chase metabolic labeling and CFTR immunoprecipitation in S9 cells; type: cell-based, human; settings: S9 cells transfected with wt-CFTR; ΔVCP 48 hrs or 10 μM bortezomib 6 hrs (FIG. 2B)
Method: as §1, §2

ΔF508-CFTR [3] = assay: Pulse-chase metabolic labeling and CFTR immunoprecipitation in CFTE cells; type: cell-based, human; settings: CFTE cells transfected with ΔF508-CFTR, 10 μM bortezomib 6 hrs, 42 hrs post-transfection (FIG. 2C)
Method: as §1, §2

VCP = assay: Immunoblotting for VCP in IB3-1 cells; type: cell-based, human; settings: IB3-1 cells treated with bortezomib 6 hrs (FIG. 3A)
Method: (§3) Cells were lysed directly on plates using M-PER (Pierce Biotech. Inc., Rockford, Ill.) protein lysis buffer containing protease inhibitor cocktail (Roche) after three washes with ice cold PBS. CF bronchial brushings were transferred to lysis buffer. For immunoprecipitation, 500 μg/ml (cell culture)/50 μg/ml (bronchial brushings) total protein extracts were incubated with 50 μl of protein A/G agarose beads (Santa Cruz Biotechnology Inc., Santa Cruz, Calif.) for 3 hours at 4° C. After preclearing, 5 μg of respective primary antibody or pre-immune sera (negative control) was added to each tube. After 1 hour, protein A/G agarose beads (50 μL) were added to each tube and tubes were incubated overnight at 4° C. Beads were washed once with lysis buffer (20 mM Tris-HCl [pH 7.6], 150 mM NaCl, 0.5% Triton X-100 and 10 μM phenylmethylsulfonyl fluoride [PMSF]) followed with two washes with phosphate buffer saline (PBS). The beads were suspended in Laemmli's sample buffer (30 μL) containing β-mercaptoethanol, vortexed for 1 minute, resolved by 4-10% SDS-PAGE and transferred to a 0.4-μm pore size nitrocellulose membrane. Proteins were detected using respective primary antibodies. For pulse chase experiments, CFTR immunoprecipitate was eluted with sample buffer and separated on a 4-8% SDS-PAGE, dried for 2 hours and processed for autoradiography.

Hsp70 = assay: Immunoblotting for Hsp70 in IB3-1 cells; type: cell-based, human; settings: IB3-1 cells treated with bortezomib 6 hrs (FIG. 3A)
Method: as §3

gp78 = assay: Immunoblotting for gp78 in IB3-1 cells; type: cell-based, human; settings: IB3-1 cells treated with bortezomib 6 hrs (FIG. 3A)
Method: as §3

Hsp40 = assay: Immunoblotting for Hsp40 in IB3-1 cells; type: cell-based, human; settings: IB3-1 cells treated with bortezomib 6 hrs (FIG. 3A)
Method: as §3

proteasome = assay: Protease activity in IB3-1 cells; type: cell-based, human; settings: 10 μM, 6 hrs treatment
IB3-1 cells = assay: Microscopic examination of cell morphology; type: cell-based, human; settings: 10 μM bortezomib 6 hrs, phase microscopy (data not shown)
NF-κB = settings: mammalian cells; cited from earlier work
[4] = test system: E-selectin, ICAM-1, and VCAM-1; settings: primary human umbilical vein endothelial cells; cited from earlier work
[5] = test system: streptococcal cell wall-induced polyarthritis; settings: rat; cited from earlier work
[6] = transfection 24 hrs or 5 μM bortezomib / 5 μM MLN-273 6 hrs (FIG. 6B)

In the case of O=C(O)c1ccc(/C=C2\SC(=S)N(c3cccc(C(F)(F)F)c3)C2=O)cc1 [172 inhibitor], the “MQAE fluorescence (Cl- channel activity)” value (CFTR; IB3-1 cells) is reported as “block the cAMP mediated cystic fibrosis transmembrane receptor (CFTR) activity”.

In the case of CCCC[C@@H](C=O)NC(=O)[C@H](CC(C)C)NC(=O)[C@H](CC(C)C)NC(C)=O [ALLN, N-acetyl-leucylleucyl-Norleucinal] (Ac-Leu-Leu-[Nle]-aldehyde), the ΔF508-CFTR degradation (ΔF508-CFTR [1]) is listed as “blocks ΔF508-CFTR it degradation”.

With CC(C)C[C@H](NC(=O)[C@H](Cc1cccc2ccccc12)NC(=O)N1CCOCC1)B(O)O [MLN273] the IL8 cytokine levels (IL8; [6]) was “significantly inhibited” and the “NFκB binding (absorbance at 450 nm)” value (NFκB) was “significantly inhibited”.

In the case of CC(C)C[C@H](NC(=O)[C@H](Cc1ccccc1)NC(=O)c1cnccn1)B(O)O [bortezomib, pyrazylcarbonyl-Phe-Leu-boronate], the “level of immature B form of ΔF508-CFTR” value (ΔF508-CFTR [2]) is reported as “partially rescues”, the “rescue of ΔF508-CFTR from ERAD” value (ΔF508-CFTR [2]) is reported as “partially rescued ΔF508-CFTR” and the “wt-CFTR maturation and stability, band B to band C” value (wt-CFTR) is reported as “substantial amounts of mature band C; also recorded: stabilizes the wild type-CFTR mature (C-form)”. The “ΔF508-CFTR accumulation and rescue” value (ΔF508-CFTR [3]) was “significant increase in the accumulation and stabilization of the B form; also recorded: rescues the ΔF508-CFTR mature (C-form) by 2 hrs”, the VCP protein level (VCP) was “inhibition” and the VCP protein level (VCP; listed as Bortezomib) was “inhibited”. The Hsp70 protein level (Hsp70) was “Induction”, the Hsp70 protein level (Hsp70; listed as Bortezomib) was “induced” and the gp78 protein level (gp78) was “no change”. For the same molecule, the Hsp40 protein level (Hsp40) was “no change”, the protease activity (proteasome) was “partial inhibition” and the “morphology of treated vs untreated monolayers” value (IB3-1 cells) was “no difference in morphology”. The “genistein mediated chloride efflux” value (CFTR; IB3-1 cells transfected with ΔF508-CFTR, bortezomib 5 or 10 μM for 6 hrs, bars in mM/s (FIG. 5C)) was “augmented chloride efflux; also recorded: significantly induced”, the “combined effect with genistein on rescue of functional ΔF508-CFTR” value (CFTR; IB3-1 cells, with genistein (FIG. 5C)) was “synergistic effect” and the IL8 cytokine levels (IL8; [6]) was “significantly inhibited”. For the same molecule, the IL8 cytokine levels (IL8; transfection 48 hrs or 5 μM bortezomib 6 hrs (FIG. 6A)) was “significantly downregulated; also recorded: significantly inhibited”, the “combined effect of ΔCHOP and bortezomib on IL8 down regulation” value (IL8; ΔCHOP 24 hrs plus 5 μM bortezomib 6 hrs, IL1-β 1 ng/ml (FIG. 6B)) was “synergistic effect” and the “NFκB binding (absorbance at 450 nm)” value (NFκB) was “significantly inhibited”. The “combined effect of ΔCHOP and bortezomib on NFκB binding” value (NFκB; ΔCHOP 24 hrs plus 5 μM bortezomib 6 hrs, IL1-β 1 ng/ml (FIG. 6C)) was “synergistic effect”, the “NF-κB activation and NF-κB-dependent gene expression” value (NF-κB) was “inhibit NF-κB activation and NF-κB-dependent gene expression” and the “TNF-α-induced gene expression of cell-surface adhesion molecules” value [4] was “inhibits”. For the same molecule, the “T cell-dependent chronic phase of the inflammatory response” value [5] was “markedly inhibited” and the “neutrophil-predominant acute phase of the inflammatory response” value [5] was “attenuated”.

For O=c1c(-c2ccc(O)cc2)coc2cc(O)cc(O)c12 [genistein], the “MQAE fluorescence (Cl- channel activity)” value (CFTR; IB3-1 cells) was “significant change” and the “MQAE fluorescence (Cl- channel activity)” value (CFTR; IB3-1 cells, listed as Genistein) was “significant increase”.
